# Entries after “also recorded” stand apart in the source; their conditions may differ.
# Key:
# [1] = test system: endogenous retinal stem cell populations; experiment: Endogenous retinal stem cell proliferation after intraocular MS-818, BrdU immunostaining; type: in vivo; conditions: rat; intraocular (vitreous cavity) 10 μg/20 μl, one time injection; after three days
# [2] = test system: endogenous neural stem cell populations in the brain; experiment: Endogenous stem cell proliferation in aged rat brain after MS-818 i.p., BrdU immunostaining; type: in vivo; conditions: 3 mg/kg/day i.p. for 5 days
# Method: To investigate the effect of MS-818, a pyrimidine derivative, on stem cell population in vivo, MS-818 (3 mg/kg/day, i.p.) was injected for 5 days into aged (27-month old) male Fisher 344 rats. The same volume of saline was injected into control animals. Bromodeoxyuridine (BrdU) (100 mg/kg/day i.p.) was then injected for 3 days. Twenty-four hours after the last injection, the brains were removed and fixed for immunohistochemical detection of the proliferating cells by immunostaining for BrdU.
structure (smiles),measurement,setting,value
"CC1Nc2nc(N3CCCCC3)ncc2C1=O.O=C(O)/C=C\C(=O)O (stereo not shown) [MS-818, 2-piperadino-6-methyl-5-oxo-5,6-dihydro(7H) pyrrolo[2,3-d]pyrimidine maleate]",number of BrdU-positive cells in retina / retinal ciliary marginal zone,[1],dramatic increase; also recorded: clearly increased
same,proliferation and migration of stem cells in the subventricular zone,[2],significant increase not only in the proliferation but also in the migration of stem cells
same,number of BrdU positive cells in SVZ (immunohistochemistry),[2]; vs control without MS-818,increased
same,number of BrdU positive cells in cerebral cortex (immunohistochemistry),[2]; vs control without MS-818,significantly increased
